Results taken from patent publication US20170304386A1, “METHOD FOR INHIBITING SURVIVAL, TUMORIGENESIS AND METASTASIS OF CANCER CELLS AND/OR CANCER STEM CELLS” (priority 2014, published 2017).
“Also recorded” adds a separate entry of the source. Residues, ends and D or L forms follow the SMILES beside them. *: point of attachment. Cbz = O=C(OCc1ccccc1)*

Tests used:
Assay type in all cases: cell-based, human
[1] = test system: S727 phosphorylation of STAT3; assay: Western blot analysis of STAT3 S727 phosphorylation in CCS cells
Description: FIGS. 7a-7m show the PP2A regulates STAT3 activation at S727 and mediates suspension survival ability in TICs. […] The results are expressed as mean±SD of three independent experiments. Asterisks indicate significant differences determined by student's t-test. Bar=20 μm.
Cells were lysed and protein was extracted using M-PER (Pierce, Rockford, Ill.) plus protease inhibitor cocktail (Pierce), and the protein concentrations were determined by the BCA assay (Pierce). Aliquots of protein lysates were separated on SDS-10% polyacrylamide gels and transferred onto poly-vinylidenedifluoride (PVDF) membrane, which was blocked with 5% milk (Bio-Rad, Richmond, Calif.) in TBST. The membrane was then hybridized with primary antibodies followed by corresponding secondary antibodies, and then detected using a chemiluminescence assay (Millipore, Billerica, Mass.). Membranes were exposed to X-ray film to visualize the bands (Amersham Pharmacia Biotech, Piscataway, N.J.). Antibodies against pSTAT3 (S727) (1:1000), pSTAT3 (Y705) (1:1000), STAT3 (1:2000), PP2A C subunit (1:2000), pAkt (S473) (1:1000), β-tubulin (1:2000), Flag (1:2000), pAkt (T308) (1:1000), Akt (1:2000), ERK (1:2000), pP38 (T180 and Y182) (1:1000), P38 (1:2000), pJNK (1:1000), and pmTOR (S2448) (1:1000) were purchased from Cell Signaling Technologies. Antibodies against pPP2A (Y307) (1:2000), Oct4 (1:500), Nanog (1:500), Histone H1 (1:1000), and Sox2 (1:500) were purchased from Santa Cruz Biotechnology Inc. Antibodies against pFAK (Y397) (1:1000) were purchased from GeneTex (San Antonio, Tex.). Antibody against Col17a1 was purchased from Abcam. Antibody against Laminin y2 (1:1000) was purchased from Chemicon (Temecula, Calif.). Antibody against cleaved-caspase 3 (1:1000) was purchased from Epitomics (Burlingame, Calif.). Antibody against pERK (1:1000) was purchased from Biosource (Camerillo, Calif.).

A549 cells [2] = assay: Invasion assay (Matrigel Invasion Chambers); settings: PMA 100 nM, 1,10-phenanthroline 20 μM
Description: (§1) Knockdown of ADAMS or ADAM10 inhibited shedding of Collagen XVII and reduced laminin-5 expression in A549 cells cultured in spheroid culture.
Cell invasion assays were performed using 24-well BD Biocoat Matrigel Invasion Chambers (Becton, Dickinson and Company, San Jose, Calif.) according to the manufacturer's instructions. In brief, cells were seeded into upper inserts (2.5×10^4 cells/insert) in DMEM supplemented with 0.1% bovine serum albumin (BSA). Outer wells were filled with DMEM containing 10% FBS as the chemoattractant. After 24 hours of incubation, the membranes with invaded cells were stained with Giemsa (Sigma), washed and mounted on slides. The entire membrane with invading cells was counted by light microscopy. Data are expressed as the number of invaded cells/well. Each assay was performed in triplicate and repeated at least twice.

EMT markers = assay: Western blot of Snail and EMT markers in A549 spheroid culture; settings: PMA 100 nM, 1,10-phenanthroline 20 μM
Description: as §1
(§2) The lung cancer cell lines A549 and CL1-1 were obtained from the American Type Culture Collection. Cells were grown in Dulbecco's Modified Eagle Medium (DMEM) (Gibco, Grand Island, N.Y.) containing 10 units/ml penicillin, 10 μg/ml streptomycin, 2 mM glutamine, and 10% fetal bovine serum (FBS; Gibco), in a 37° C. humidified atmosphere with 5% CO2. For enrichment of cancer stem-like cells (CSCs) in spheroid culture, lung cancer cells were suspended in tumor sphere medium consisting of serum-free DMEM/F12 (Gibco), N2 supplement (Gibco), human recombinant epidermal growth factor (EGF) (20 ng/ml, PeproTech, Rocky Hill, N.J.), and basic fibroblastic growth factor (bFGF) (10 ng/ml, PeproTech). Cell colonies >100 μm in diameter and >50% in area showing 3-dimensional structure and blurred cell margins were defined as spheres. Sphere numbers were counted at day 12 of culture. Cells were harvested and protein lysates were collected for further experiments. Treatment reagents included FAK inhibitor (20 μM) (Calbiochem, San Diego, Calif.; Merk, Schwalbach, Germany), LY294002 (10 μM) (Calbiochem), 1,10-phenanthroline (20 μM) (Sigma-Aldrich; St. Louis, Mo.), PMA (100 nM) (Sigma-Aldrich) and Cyclohexamide (50 μg/ml) (Calbiochem).
(§3) Cell extracts were prepared with M-PER (Pierce, Rockford, Ill.) plus protease inhibitor cocktail (Halt™; Pierce) and protein concentrations were determined using the bicinchoninic acid (BCA) assay (Pierce). Aliquots of protein lysates were separated on SDS-10% polyacrylamide gels and transferred to PVDF membrane filters, followed by blocking with 5% blotting grade milk (Bio-Rad, Hercules, Calif.) in TBST (20 mM Tris-HCl [pH 7.6], 137 mM NaCl, 1% Tween 20). Membranes were then probed with the indicated primary antibodies, reacted with the corresponding secondary antibodies, and results detected using a chemiluminescence assay (Millipore, Billerica, Mass.). Membranes were exposed to X-ray film to visualize the bands (Amersham Pharmacia Biotech, Piscataway, N.J.).

A549 cells [3] = assay: Migration assay (Boyden chambers); settings: PMA 100 nM, 1,10-phenanthroline 20 μM
Description: as §1
Cell migration assay was performed using Boyden chambers. At the end of the assay, cells in the upper chamber and on the upper filter surface were removed, whereas cells on the lower filter surface were fixed with ethanol and stained with Giemsa (Sigma-Aldrich). The number of migrating cells was determined by counting cells in 10 random fields/filter at 200× magnification. Data were calculated as a percentage of migrated cells in the absence of chemoattractant or adherent culture, which was considered as 100%. All experiments were performed in triplicate.

Col XVII = assay: Immunoblot of Col XVII shedding in A549 spheroid culture; settings: A549 spheroid culture 12 days; PMA 100 nM, 1,10-phenanthroline 20 μM
Description: as §1
The lung cancer cell lines A549 and CL1-1 were obtained from the American Type Culture Collection. Cells were grown in Dulbecco's Modified Eagle Medium (DMEM) (Gibco, Grand Island, N.Y.) containing 10 units/ml penicillin, 10 μg/ml streptomycin, 2 mM glutamine, and 10% fetal bovine serum (FBS; Gibco), in a 37° C. humidified atmosphere with 5% CO2. For enrichment of cancer stem-like cells (CSCs) in spheroid culture, lung cancer cells were suspended in tumor sphere medium consisting of serum-free DMEM/F12 (Gibco), N2 supplement (Gibco), human recombinant epidermal growth factor (EGF) (20 ng/ml, PeproTech, Rocky Hill, N.J.), and basic fibroblastic growth factor (bFGF) (10 ng/ml, PeproTech). […] Sphere numbers were counted at day 12 of culture. […]
Cell extracts were prepared with M-PER (Pierce, Rockford, Ill.) plus protease inhibitor cocktail (Halt™; Pierce) and protein concentrations were determined using the bicinchoninic acid (BCA) assay (Pierce). […] Membranes were then probed with the indicated primary antibodies, reacted with the corresponding secondary antibodies, and results detected using a chemiluminescence assay (Millipore, Billerica, Mass.). […]

A549 cells [4] = assay: Wound healing assay; settings: PMA 100 nM, 1,10-phenanthroline 20 μM
Description: as §1
An in vitro model of the ability of A549 and CL1-1 lung cancer cells to migrate in a monolayer culture was used to measure wound healing ability. Lung cancer cells were seeded into 6-well plates and incubated overnight. The cells were disrupted by scraping them with a […] pipette tip. […] The percent of wounded area filled was calculated as follows: [(mean wound width-mean remaining width)/mean wound width]×100(%).

laminin-5 = assay: Western blot of laminin-5 level and degradation in A549 spheroid culture; settings: for level of laminin 5: A549 spheroid culture 12 days, PMA 100 nM, 1,10-phenanthroline 20 μM; for laminin 5 protein half-life / degradation: A549 suspension cells, spheroid medium containing cycloheximide 50 μg/ml
Description: as §1, §2, §3

[5] = test system: spheres formed by HT29 spheroid culture; assay: Live/Dead analysis of spheres pre-treated with enzymes, then suspension culture; settings: pre-treatment of spheres with enzyme, then suspension culture 24 hours
laminin 5 = assay: Western blot of laminin 5 protein with cycloheximide with or without MG132; settings: TICs with Col17a1 knockdown; 50 μg/ml cycloheximide; 10 μM MG132; 6, 12, 24, 36 hours
Description: FIGS. 5a-5k show the Col XVII-mediated suspension survival ability depends on laminin 5 and FAK activation. FIGS. 5a and 5b show the Bulk cancer cells (Bulk) and spheroid culture-enriched TICs (SPH) were cultured in spheroid condition for 10 h, followed by FIG. 5a (western blot assay), and FIG. 5b (immunofluorescence) followed by examination with a confocal microscope. […] FIGS. 5e-5f show the spheroid cultures of cells overexpressed with control shRNAs (CTR) or different Col17a1 shRNAs, si(1) and si(2) were assayed for mRNA and protein levels (FIG. 5e), and immunostaining (CCS)(FIG. 5f) followed by examination with a confocal microscope. FIG. 5g (top), western blot analysis for spheroid culture-enriched TICs expressing control shRNAs (CTR) or Col17a1 shRNAs, si(1) or si(2), treated with 50 μg/ml cycloheximide in the presence or absence of 10 μM MG132 for 6, 12, 24, and 36 hours. FIG. 5g (bottom), graphical representation of the relative band intensities of laminin 5 protein. […]
Cells were lysed and protein was extracted using M-PER (Pierce, Rockford, Ill.) plus protease inhibitor cocktail (Pierce), and the protein concentrations were determined by the BCA assay (Pierce). […] The membrane was then hybridized with primary antibodies followed by corresponding secondary antibodies, and then detected using a chemiluminescence assay (Millipore, Billerica, Mass.). […]

[6] = CCS bulk cancer cells, 0, 0.1, 0.5, 1 nM OA for 1 hour or 0, 5, 10, 15 nM CA for 30 min

Question: With `COC[C@@H]([C@H](O)[C@H](O)C(=O)NCC[C@H](C)c1nc(/C=C/C[C@@H]2O[C@]3(C[C@@H](O)[C@@H]2C)O[C@H]([C@H](C[C@H](O)[C@H](C)[C@H](O)[C@H](C)/C=C(C)/C(C)=C/C=C/C(C)=C\C#N)OC)[C@H](OP(=O)(O)O)C3(C)C)co1)N(C)C` [calyculin A] as the compound, how does the “S727 phosphorylation of STAT3” value [1, 6] read?
Answer: increased S727 phosphorylation of STAT3 in a dose-dependent manner

Question: For `c1cnc2c(c1)ccc1cccnc12` [1,10-phenanthroline], which invasion (A549 cells [2]) is on record?
Answer: reduced

Question: What about the EMT markers (EMT markers) of the same compound?
Answer: reduced

Question: And the “expression of Snail” value (EMT markers)?
Answer: reduced

Question: And the “expression of epithelial marker E-cadherin” value (EMT markers)?
Answer: increased

Question: And the “expression of mesenchymal markers” value (EMT markers)?
Answer: decreased

Question: And the cell migration (A549 cells [3])?
Answer: reduced

Question: What about the “shedding of COL XVII” value (Col XVII) of the same compound?
Answer: decreased

Question: And the wound closure (A549 cells [4])?
Answer: reduced

Question: And the “level of laminin 5” value (laminin-5)?
Answer: negatively

Question: And the “laminin 5 protein half-life / degradation” value (laminin-5)?
Answer: degraded faster

Question: With chymotrypsin as the compound, how does the “cell death in suspension culture (Live/Dead analysis)” value [5] read?
Answer: cause cell death

Question: `CC(C)C[C@@H](C=O)NC(=O)[C@H](CC(C)C)NC(=O)[C@H](CC(C)C)NC(=O)OCc1ccccc1` [MG132] (Cbz-Leu-Leu-Leu-aldehyde) was tested. Which “laminin 5 protein level” value (laminin 5) did it give?
Answer: restored

Question: How did the “S727 phosphorylation of STAT3” value ([1]; CCS spheroid culture-enriched TICs, 50 nM ceramide C6 for 24 hours) turn out when `CCCCCCCCCCCCCC=CC(O)C(CO)NC(=O)CCCCC` (stereo not shown) [ceramide C6] was run?
Answer: reduced S727 phosphorylation of STAT3

Question: Which results are given for `CCCCCCCCCCCCCC(=O)O[C@@H]1[C@@H](C)[C@@]2(O)[C@@H](C=C(CO)C[C@]3(O)C(=O)C(C)=C[C@@H]23)[C@@H]2C(C)(C)[C@]12OC(C)=O` [PMA]?
Answer: invasion (A549 cells [2]): enhanced; EMT markers (EMT markers): activated; expression of Snail (EMT markers): enhanced; expression of epithelial marker E-cadherin (EMT markers): decreased; expression of mesenchymal markers (EMT markers): increased; cell migration (A549 cells [3]): enhanced; shedding of COL XVII (Col XVII): increased; also recorded: stimulated; wound closure (A549 cells [4]): enhanced; level of laminin 5 (laminin-5): positively; also recorded: enhanced; laminin 5 protein half-life / degradation (laminin-5): longer half-life; also recorded: decreased degradation

Question: With `C=C1[C@@H](O)[C@@H]2O[C@]3(CC[C@H](/C=C/[C@@H](C)[C@@H]4CC(C)=C[C@@]5(O[C@H](C[C@@](C)(O)C(=O)O)CC[C@H]5O)O4)O3)CC[C@H]2O[C@@H]1[C@@H](O)C[C@H](C)[C@H]1O[C@@]2(CCCCO2)CC[C@H]1C` [okadaic acid] as the compound, how does the “S727 phosphorylation of STAT3” value [1, 6] read?
Answer: increased S727 phosphorylation of STAT3 in a dose-dependent manner
